Reference: patent US20060263760A1, “Screening method of substance with antidepressant action” (THE UNIVERSITY OF TOKYO, priority 2005, published 2006)

System: nerve cells in hippocampus CA1 region of hippocampus sections
Assay: long-term potentiation of excitatory postsynaptic potential (EPSP) in hippocampus sections, accumulated potential with single glass electrode
Assay type: cell-based, rat
Settings: for EPSP reaction (ratio of largest slope value of accumulated potential to basal slope value defined as 100%): read 60 minutes after stimulation
Method: A specific example of the assessment of substances with antidepressant actions by the screening method is described below. At the cell preparation step in the Example, the brain hippocampus of an adult rat was cut vertically along the longitudinal axis using vibratome (DSK ZERO1, manufactured by DOUSAKA EM K.K), to prepare plural longitudinal cross- sectional sections of a thickness of 400 μm. In this Example, a part of the hippocampus sections is prepared as a candidate substance treatment group, while another part of the hippocampus sections is prepared as a control treatment group and an additional part of the hippocampus sections is prepared as non-treatment group. These hippocampus sections were immersed in an artificial cerebrospinal fluid sufficiently saturated with a mixture gas of oxygen and carbon dioxide (95% oxygen gas, 5% carbon dioxide gas) and left to stand at room temperature for 1.5 hours or more under the purge of the mixture gas from the above over the hippocampus sections. Thereafter, the electrophysiological response was assayed as described below. As the artificial cerebrospinal fluid, an aqueous solution containing 124 mM NaCl, 1.25 mM NaH2PO4.2H2O, 5 mM KCl, 2 mM MgSO4.7H2O, 2 mM CaCl2, 22 mM NaHCO3, and 10 mM glucose was used. […] At the cell preparation step, additionally, the presynaptic fibers in the CA1 regions of the hippocampus sections were repeatedly stimulated at an interval of 20 seconds, using the stimulation electrode, while excitatory postsynaptic potential induced by the electric stimulation was recorded as accumulated potential over about 30 minutes. […] Therefore, it was determined to assess the dimension of the slope in the part M with the most rapid change of the accumulated potential on the stimulation [namely, the largest slope on the earlier side of the assay time period of accumulated potential waveform (on the left side)] […]

Row | Compound | reduction of the level of the long-term potentiation [dimension (%) of EPSP reaction] (contact to corticosteron 1 μM versus non-treatment group, 60 minutes after high-frequency stimulation) | EPSP reaction (ratio of largest slope value of accumulated potential to basal slope value defined as 100%) (corticosteron 1 μM alone perfused 30 minutes before 100-Hz high-frequency stimulation, non-treatment group about 130%) | EPSP reaction (ratio of largest slope value of accumulated potential to basal slope value defined as 100%) (estradiol 1 nM together with corticosteron 1 μM perfused 30 minutes before 100-Hz high-frequency stimulation)
1 | C[C@]12C[C@H](O)[C@H]3[C@@H](CCC4=CC(=O)CC[C@@]43C)[C@@H]1CC[C@@H]2C(=O)CO [corticosteron] | about 20% | about 110% | –
2 | C[C@]12CC[C@@H]3c4ccc(O)cc4CC[C@H]3[C@@H]1CC[C@@H]2O [estradiol] | – | – | about 130%
